In PubChem BioAssay (NCI):
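48-hour exposure; five concentrations; linearly interpolated endpoints. GI50 is the concentration that inhibits growth by half. TGI: concentration producing complete growth inhibition.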

Columns and labels:
Assay in all cases: NCI anticancer screen, dose series, 48 h
[1] = system: TK-10 renal
[2] = system: HCC-2998 colon
[3] = system: EKVX NSCLC
[4] = system: OVCAR-3 ovarian
[5] = system: UACC-62 melanoma
[6] = system: SF-295 CNS
[7] = system: SNB-75 CNS
[8] = system: NCI-H23 lung
[9] = system: OVCAR-4 ovarian
[10] = system: HCT-15 colon
[11] = system: HCT-116 colon
[12] = system: A549 NSCLC
[13] = system: MALME-3M melanoma
[14] = system: SN12C renal
[15] = system: RPMI-8226 leukemia
[16] = system: LOX IMVI melanoma

Structure (SMILES) | TGI [1] [µM] | TGI [2] [µM] | TGI [3] [µM] | GI50 [4] [µM] | TGI [4] [µM] | TGI [5] [µM] | TGI [6] [µM] | TGI [7] [µM] | GI50 [8] [µM] | TGI [8] [µM] | GI50 [9] [µM] | TGI [9] [µM] | TGI [10] [µM] | GI50 [11] [µM] | TGI [11] [µM] | TGI [12] [µM] | TGI [13] [µM] | TGI [14] [µM] | TGI [15] [µM] | TGI [16] [µM]
C/C(=N\NC(=O)c1ccccc1O)c1cccc(/C(C)=N/NC(=O)c2ccccc2O)n1.O=S(=O)([O-])[O-].[Fe+2] | > 100 | > 100 | > 100 | > 100 | > 100 | > 100 | > 100 | > 100 | > 100 | > 100 | > 100 | > 100 | > 100 | 69.2 | > 100 | > 100 | > 100 | – | – | –
CC(C)C1NC(=O)CC(c2ccccc2)N(N=O)C1c1ccccc1 (stereo not given) | – | > 100 | > 100 | – | > 100 | > 100 | > 100 | > 100 | – | > 100 | – | > 100 | > 100 | – | > 100 | > 100 | > 100 | > 100 | > 100 | > 100
COc1cc(C2(c3ncc[nH]3)SSSCC2O)ccc1O (stereo not given) | – | 77 | > 100 | – | > 71.7 | > 51.2 | > 100 | > 100 | – | > 100 | – | > 63.7 | > 100 | – | > 100 | > 100 | – | > 100 | > 100 | > 54.5
Cc1c(N=C/C=C/c2ccccc2)c(=O)n(-c2ccccc2)n1C | > 100 | – | 81.8 | – | 67.9 | 36 | 40.6 | – | – | 69.8 | – | 40.9 | > 100 | – | 29.2 | > 100 | 62.9 | 43.4 | 38.6 | 25
